The kinase profiling compilation of Christmann-Franck et al. (2016)

Columns and labels:
Assay in all cases: KINOMEscan competition binding
Details in all cases: compound 10.0 µM
PIK3CG (human) = PIK3CG (human) (UniProt P48736)
DCLK3 (human) = DCLK3 (human) (UniProt Q9C098)
CIT (human) = CIT (human) (UniProt O14578)
MAP2K3 (human) = MAP2K3 (human) (UniProt P46734)
PRKD1 (human) = PRKD1 (human) (UniProt Q15139)
[1] = tested on: EGFR (human), P00533 [G719S]
ACVR2A (human) = ACVR2A (human) (UniProt P27037)
CDK7 (human) = CDK7 (human) (UniProt P50613)
MKNK1 (human) = MKNK1 (human) (UniProt Q9BUB5)
[2] = tested on: KIT (human), P10721 [V559D/T670I]
CAMKK2 (human) = CAMKK2 (human) (UniProt Q96RR4)
NEK2 (human) = NEK2 (human) (UniProt P51955)
NEK2 (human), sequence (P51955 whole entry, looked up): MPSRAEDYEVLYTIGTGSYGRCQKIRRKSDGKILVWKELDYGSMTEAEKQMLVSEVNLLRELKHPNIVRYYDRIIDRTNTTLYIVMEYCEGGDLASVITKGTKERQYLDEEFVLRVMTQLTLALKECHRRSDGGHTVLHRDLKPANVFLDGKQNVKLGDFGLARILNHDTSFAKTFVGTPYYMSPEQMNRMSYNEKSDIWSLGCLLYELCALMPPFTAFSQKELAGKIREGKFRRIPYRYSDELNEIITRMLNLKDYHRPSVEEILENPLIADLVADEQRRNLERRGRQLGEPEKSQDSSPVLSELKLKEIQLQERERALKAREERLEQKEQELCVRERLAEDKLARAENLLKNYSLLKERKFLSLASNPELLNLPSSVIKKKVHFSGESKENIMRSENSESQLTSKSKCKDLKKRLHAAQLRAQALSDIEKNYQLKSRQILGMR

RPS6KA1 KD2 (human) = RPS6KA1 KD2 (human) (UniProt Q15418)
GAK (human) = GAK (human) (UniProt O14976)
RPS6KA5 KD2 (human) = RPS6KA5 KD2 (human) (UniProt O75582)
[3] = biological target: JAK1 JH2 pseudokinase (human) (UniProt P23458)
[4] = tested on: KIT (human), P10721 [D816V]
KIT (human), P10721 [D816V], sequence (P10721 whole entry D816V, looked up): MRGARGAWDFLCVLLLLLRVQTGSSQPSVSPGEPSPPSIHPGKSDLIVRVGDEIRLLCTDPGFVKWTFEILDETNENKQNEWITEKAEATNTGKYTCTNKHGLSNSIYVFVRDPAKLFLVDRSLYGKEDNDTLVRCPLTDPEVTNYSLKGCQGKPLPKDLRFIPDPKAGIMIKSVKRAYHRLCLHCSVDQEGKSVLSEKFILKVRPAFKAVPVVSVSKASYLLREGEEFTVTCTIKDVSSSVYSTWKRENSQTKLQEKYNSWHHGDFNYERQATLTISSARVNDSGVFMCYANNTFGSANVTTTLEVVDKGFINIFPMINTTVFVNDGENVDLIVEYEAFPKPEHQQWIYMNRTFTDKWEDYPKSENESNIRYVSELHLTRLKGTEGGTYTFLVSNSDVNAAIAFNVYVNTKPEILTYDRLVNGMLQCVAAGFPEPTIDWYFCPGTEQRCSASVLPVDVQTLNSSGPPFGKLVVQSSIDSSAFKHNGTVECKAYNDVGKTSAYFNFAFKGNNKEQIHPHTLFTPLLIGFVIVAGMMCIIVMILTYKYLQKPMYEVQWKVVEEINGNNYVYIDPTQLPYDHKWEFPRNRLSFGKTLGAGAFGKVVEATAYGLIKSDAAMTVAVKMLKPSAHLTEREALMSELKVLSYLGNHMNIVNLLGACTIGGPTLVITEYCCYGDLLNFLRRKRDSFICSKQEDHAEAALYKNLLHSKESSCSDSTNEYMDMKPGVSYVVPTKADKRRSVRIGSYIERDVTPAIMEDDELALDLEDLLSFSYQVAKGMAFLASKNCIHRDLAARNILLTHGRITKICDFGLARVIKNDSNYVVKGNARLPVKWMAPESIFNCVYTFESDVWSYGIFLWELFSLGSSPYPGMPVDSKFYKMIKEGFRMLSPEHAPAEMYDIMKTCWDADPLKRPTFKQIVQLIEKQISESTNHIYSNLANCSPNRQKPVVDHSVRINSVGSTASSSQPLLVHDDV

[5] = tested on: FLT3 (human), P36888 [K663Q]
CSNK2A1 (human) = CSNK2A1 (human) (UniProt P68400)
MAP3K7 (human) = MAP3K7 (human) (UniProt O43318)
CAMKK1 (human) = CAMKK1 (human) (UniProt Q8N5S9)
CAMKK1 (human), sequence (Q8N5S9 whole entry, looked up): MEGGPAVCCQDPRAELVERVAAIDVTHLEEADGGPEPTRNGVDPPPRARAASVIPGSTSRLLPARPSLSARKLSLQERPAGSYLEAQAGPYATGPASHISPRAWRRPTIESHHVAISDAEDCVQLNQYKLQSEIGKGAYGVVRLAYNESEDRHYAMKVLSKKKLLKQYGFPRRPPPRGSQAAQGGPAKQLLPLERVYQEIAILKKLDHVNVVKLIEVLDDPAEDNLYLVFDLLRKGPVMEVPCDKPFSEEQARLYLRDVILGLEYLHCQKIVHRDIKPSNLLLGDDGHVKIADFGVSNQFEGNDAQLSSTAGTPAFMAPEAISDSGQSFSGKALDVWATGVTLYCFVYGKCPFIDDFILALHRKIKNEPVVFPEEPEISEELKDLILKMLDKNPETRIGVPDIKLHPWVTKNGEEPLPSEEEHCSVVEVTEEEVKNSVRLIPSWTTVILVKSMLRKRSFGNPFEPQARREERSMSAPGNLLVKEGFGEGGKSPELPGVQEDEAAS

RIPK4 (human) = RIPK4 (human) (UniProt P57078)
PIM1 (human) = PIM1 (human) (UniProt P11309)
[6] = biological target: JAK3 JH1 catalytic (human) (UniProt P52333)
KIT (human) = KIT (human) (UniProt P10721)
KIT (human), sequence (P10721 whole entry, looked up): as the sequence (P10721 whole entry D816V, looked up) above, with V816D counted along it

CSNK1E (human) = CSNK1E (human) (UniProt P49674)
CSNK1E (human), sequence (P49674 whole entry, looked up): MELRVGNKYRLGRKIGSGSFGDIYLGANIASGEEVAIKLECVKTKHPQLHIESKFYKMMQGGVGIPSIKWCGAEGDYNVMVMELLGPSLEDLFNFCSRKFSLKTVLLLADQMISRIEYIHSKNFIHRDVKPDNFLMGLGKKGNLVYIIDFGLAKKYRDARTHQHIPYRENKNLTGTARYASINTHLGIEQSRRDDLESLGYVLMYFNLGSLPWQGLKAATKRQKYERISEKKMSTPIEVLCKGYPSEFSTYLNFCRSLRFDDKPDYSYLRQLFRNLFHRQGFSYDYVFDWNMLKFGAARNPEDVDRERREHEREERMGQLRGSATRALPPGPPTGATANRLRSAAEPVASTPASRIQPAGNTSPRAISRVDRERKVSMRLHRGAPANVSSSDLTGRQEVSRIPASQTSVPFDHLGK

ULK2 (human) = ULK2 (human) (UniProt Q8IYT8)
MINK1 (human) = MINK1 (human) (UniProt Q8N4C8)
RIOK2 (human) = RIOK2 (human) (UniProt Q9BVS4)
CLK3 (human) = CLK3 (human) (UniProt P49761)
RIOK1 (human) = RIOK1 (human) (UniProt Q9BRS2)
RPS6KA4 KD2 (human) = RPS6KA4 KD2 (human) (UniProt O75676)
CLK2 (human) = CLK2 (human) (UniProt P49760)
AURKC (human) = AURKC (human) (UniProt Q9UQB9)
AURKC (human), sequence (Q9UQB9 whole entry, looked up): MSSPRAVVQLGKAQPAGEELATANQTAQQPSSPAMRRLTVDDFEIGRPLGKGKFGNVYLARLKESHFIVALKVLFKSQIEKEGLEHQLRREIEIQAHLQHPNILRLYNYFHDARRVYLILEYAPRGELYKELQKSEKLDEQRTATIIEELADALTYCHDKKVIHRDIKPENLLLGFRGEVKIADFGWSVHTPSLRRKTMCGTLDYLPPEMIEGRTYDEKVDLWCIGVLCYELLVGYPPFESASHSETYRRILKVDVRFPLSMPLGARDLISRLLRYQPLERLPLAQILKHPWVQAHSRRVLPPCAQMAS

MKNK2 (human) = MKNK2 (human) (UniProt Q9HBH9)
MKNK2 (human), sequence (Q9HBH9 whole entry, looked up): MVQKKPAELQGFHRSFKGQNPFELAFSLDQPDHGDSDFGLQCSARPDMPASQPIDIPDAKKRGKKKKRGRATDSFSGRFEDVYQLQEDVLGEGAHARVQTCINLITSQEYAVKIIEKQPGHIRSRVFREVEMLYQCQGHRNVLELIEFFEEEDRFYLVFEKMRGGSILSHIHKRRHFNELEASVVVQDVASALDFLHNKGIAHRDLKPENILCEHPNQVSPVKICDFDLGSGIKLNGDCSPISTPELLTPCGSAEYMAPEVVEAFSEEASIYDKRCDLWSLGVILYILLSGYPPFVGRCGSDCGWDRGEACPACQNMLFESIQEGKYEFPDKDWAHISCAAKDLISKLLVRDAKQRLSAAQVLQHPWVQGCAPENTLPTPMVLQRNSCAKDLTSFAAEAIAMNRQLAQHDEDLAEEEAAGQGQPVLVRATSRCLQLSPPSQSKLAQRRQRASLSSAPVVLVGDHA

MAPK15 (human) = MAPK15 (human) (UniProt Q8TD08)
MAPK15 (human), sequence (Q8TD08 whole entry, looked up): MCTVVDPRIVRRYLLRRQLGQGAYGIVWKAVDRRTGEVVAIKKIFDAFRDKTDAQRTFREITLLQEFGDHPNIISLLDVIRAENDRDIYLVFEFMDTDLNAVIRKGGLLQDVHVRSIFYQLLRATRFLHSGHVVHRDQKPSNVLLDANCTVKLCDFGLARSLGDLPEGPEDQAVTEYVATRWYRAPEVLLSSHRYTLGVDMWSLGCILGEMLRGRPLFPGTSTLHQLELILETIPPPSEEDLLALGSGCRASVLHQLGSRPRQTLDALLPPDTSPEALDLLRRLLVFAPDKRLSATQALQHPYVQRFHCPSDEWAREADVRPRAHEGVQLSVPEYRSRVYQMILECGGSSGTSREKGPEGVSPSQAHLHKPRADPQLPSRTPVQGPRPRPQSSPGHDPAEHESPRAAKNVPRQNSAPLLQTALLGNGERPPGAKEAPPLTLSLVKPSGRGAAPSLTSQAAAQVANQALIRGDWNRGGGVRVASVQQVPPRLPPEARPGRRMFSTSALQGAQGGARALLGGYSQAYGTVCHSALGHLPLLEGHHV

[7] = biological target: TYK2 JH2 pseudokinase (human) (UniProt P29597)
HIPK1 (human) = HIPK1 (human) (UniProt Q86Z02)
FLT3 (human) = FLT3 (human) (UniProt P36888)
STK17B (human) = STK17B (human) (UniProt O94768)
STK17B (human), sequence (O94768 whole entry, looked up): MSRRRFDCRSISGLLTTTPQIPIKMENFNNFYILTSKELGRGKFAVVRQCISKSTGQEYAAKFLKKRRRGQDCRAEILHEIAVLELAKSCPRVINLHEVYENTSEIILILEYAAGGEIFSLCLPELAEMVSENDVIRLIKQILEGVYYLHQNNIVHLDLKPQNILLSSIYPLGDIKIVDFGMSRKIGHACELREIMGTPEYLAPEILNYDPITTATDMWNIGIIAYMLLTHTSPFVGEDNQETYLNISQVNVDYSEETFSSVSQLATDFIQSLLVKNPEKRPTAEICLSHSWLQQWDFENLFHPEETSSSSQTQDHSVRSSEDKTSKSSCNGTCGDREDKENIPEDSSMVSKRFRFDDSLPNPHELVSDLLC

DAPK1 (human) = DAPK1 (human) (UniProt P53355)
MYLK (human) = MYLK (human) (UniProt Q15746)

PRKD1 (human), sequence (Q15139 whole entry, looked up): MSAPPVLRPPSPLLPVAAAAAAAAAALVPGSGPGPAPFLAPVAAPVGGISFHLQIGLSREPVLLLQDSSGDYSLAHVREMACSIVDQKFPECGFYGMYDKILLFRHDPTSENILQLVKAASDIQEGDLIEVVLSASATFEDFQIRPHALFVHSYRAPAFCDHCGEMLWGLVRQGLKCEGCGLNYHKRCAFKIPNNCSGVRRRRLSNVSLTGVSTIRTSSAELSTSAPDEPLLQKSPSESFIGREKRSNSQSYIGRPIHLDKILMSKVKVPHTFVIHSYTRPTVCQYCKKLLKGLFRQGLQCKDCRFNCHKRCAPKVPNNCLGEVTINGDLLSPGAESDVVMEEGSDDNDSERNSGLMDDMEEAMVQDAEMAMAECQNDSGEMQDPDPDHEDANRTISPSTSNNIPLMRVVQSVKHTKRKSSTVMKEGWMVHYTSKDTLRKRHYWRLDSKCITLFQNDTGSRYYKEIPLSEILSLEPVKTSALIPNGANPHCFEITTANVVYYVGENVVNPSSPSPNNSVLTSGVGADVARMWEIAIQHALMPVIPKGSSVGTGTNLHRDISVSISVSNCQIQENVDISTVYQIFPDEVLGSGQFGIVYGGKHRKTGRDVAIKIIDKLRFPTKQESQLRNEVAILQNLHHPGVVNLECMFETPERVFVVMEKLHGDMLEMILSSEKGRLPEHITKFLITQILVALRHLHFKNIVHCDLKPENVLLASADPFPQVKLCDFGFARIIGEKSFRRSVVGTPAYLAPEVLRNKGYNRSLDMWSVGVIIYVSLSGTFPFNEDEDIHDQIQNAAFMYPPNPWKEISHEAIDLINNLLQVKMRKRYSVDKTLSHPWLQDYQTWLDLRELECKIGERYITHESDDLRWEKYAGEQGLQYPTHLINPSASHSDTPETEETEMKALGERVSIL

CN1CCN(c2ccc(C(=O)Nc3ncc4c(n3)N(C)c3ccccc3C(=O)N4C)cc2)CC1
kinase still bound, per cent of control (PIK3CG (human)): 70% | kinase still bound, per cent of control (DCLK3 (human)): 100% | kinase still bound, per cent of control (CIT (human)): 100% | kinase still bound, per cent of control (MAP2K3 (human)): 84% | kinase still bound, per cent of control (PRKD1 (human)): 100% | kinase still bound, per cent of control [1]: 95% | kinase still bound, per cent of control (ACVR2A (human)): 100% | kinase still bound, per cent of control (CDK7 (human)): 74% | kinase still bound, per cent of control (MKNK1 (human)): 100% | kinase still bound, per cent of control [2]: 75% | kinase still bound, per cent of control (CAMKK2 (human)): 97% | kinase still bound, per cent of control (NEK2 (human)): 100% | kinase still bound, per cent of control (RPS6KA1 KD2 (human)): 94% | kinase still bound, per cent of control (GAK (human)): 100% | kinase still bound, per cent of control (RPS6KA5 KD2 (human)): 100% | kinase still bound, per cent of control [3]: 100% | kinase still bound, per cent of control [4]: 100% | kinase still bound, per cent of control [5]: 100% | kinase still bound, per cent of control (CSNK2A1 (human)): 100% | kinase still bound, per cent of control (MAP3K7 (human)): 89% | kinase still bound, per cent of control (CAMKK1 (human)): 100% | kinase still bound, per cent of control (RIPK4 (human)): 96% | kinase still bound, per cent of control (PIM1 (human)): 100% | kinase still bound, per cent of control [6]: 100% | kinase still bound, per cent of control (KIT (human)): 74% | kinase still bound, per cent of control (CSNK1E (human)): 89% | kinase still bound, per cent of control (ULK2 (human)): 89% | kinase still bound, per cent of control (MINK1 (human)): 100% | kinase still bound, per cent of control (RIOK2 (human)): 85% | kinase still bound, per cent of control (CLK3 (human)): 100% | kinase still bound, per cent of control (RIOK1 (human)): 80% | kinase still bound, per cent of control (RPS6KA4 KD2 (human)): 98% | kinase still bound, per cent of control (CLK2 (human)): 96% | kinase still bound, per cent of control (AURKC (human)): 99% | kinase still bound, per cent of control (MKNK2 (human)): 66% | kinase still bound, per cent of control (MAPK15 (human)): 100% | kinase still bound, per cent of control [7]: 61% | kinase still bound, per cent of control (HIPK1 (human)): 100% | kinase still bound, per cent of control (FLT3 (human)): 100% | kinase still bound, per cent of control (STK17B (human)): 100% | kinase still bound, per cent of control (DAPK1 (human)): 84% | kinase still bound, per cent of control (MYLK (human)): 92%

COc1cc(N2CCN(C)CC2)ccc1Nc1ncc2c(n1)N(C)c1ccccc1N(C)C2=O
kinase still bound, per cent of control (PIK3CG (human)): 100% | kinase still bound, per cent of control (DCLK3 (human)): 100% | kinase still bound, per cent of control (CIT (human)): 95% | kinase still bound, per cent of control (MAP2K3 (human)): 92% | kinase still bound, per cent of control (PRKD1 (human)): 87% | kinase still bound, per cent of control [1]: 90% | kinase still bound, per cent of control (ACVR2A (human)): 92% | kinase still bound, per cent of control (CDK7 (human)): 100% | kinase still bound, per cent of control (MKNK1 (human)): 100% | kinase still bound, per cent of control [2]: 84% | kinase still bound, per cent of control (CAMKK2 (human)): 53% | kinase still bound, per cent of control (NEK2 (human)): 96% | kinase still bound, per cent of control (RPS6KA1 KD2 (human)): 56% | kinase still bound, per cent of control (GAK (human)): 45% | kinase still bound, per cent of control (RPS6KA5 KD2 (human)): 93% | kinase still bound, per cent of control [3]: 97% | kinase still bound, per cent of control [4]: 100% | kinase still bound, per cent of control [5]: 92% | kinase still bound, per cent of control (CSNK2A1 (human)): 88% | kinase still bound, per cent of control (MAP3K7 (human)): 100% | kinase still bound, per cent of control (CAMKK1 (human)): 73% | kinase still bound, per cent of control (RIPK4 (human)): 100% | kinase still bound, per cent of control (PIM1 (human)): 91% | kinase still bound, per cent of control [6]: 100% | kinase still bound, per cent of control (KIT (human)): 100% | kinase still bound, per cent of control (CSNK1E (human)): 56% | kinase still bound, per cent of control (ULK2 (human)): 100% | kinase still bound, per cent of control (MINK1 (human)): 100% | kinase still bound, per cent of control (RIOK2 (human)): 50% | kinase still bound, per cent of control (CLK3 (human)): 100% | kinase still bound, per cent of control (RIOK1 (human)): 78% | kinase still bound, per cent of control (RPS6KA4 KD2 (human)): 88% | kinase still bound, per cent of control (CLK2 (human)): 81% | kinase still bound, per cent of control (AURKC (human)): 86% | kinase still bound, per cent of control (MKNK2 (human)): 0.55% | kinase still bound, per cent of control (MAPK15 (human)): 100% | kinase still bound, per cent of control [7]: 100% | kinase still bound, per cent of control (HIPK1 (human)): 68% | kinase still bound, per cent of control (FLT3 (human)): 96% | kinase still bound, per cent of control (STK17B (human)): 100% | kinase still bound, per cent of control (DAPK1 (human)): 82% | kinase still bound, per cent of control (MYLK (human)): 97%
